Data on seven compounds can be found in ChEMBL document CHEMBL5465560, “Selectivity Literature for EUbOPEN Chemogenomic Library” (2024).

Test [1] addresses Serine/threonine-protein kinase MARK2 (Homo sapiens) (UniProt Q7KZI7). Description: Selectivity interaction (ProQinase) EUB0000171b MARK2.
For test [2], the target named is Homeodomain-interacting protein kinase 1 (Homo sapiens, UniProt Q86Z02). Nature of the test: Selectivity interaction (ProQinase) EUB0000171b HIPK1.
The target in test [3] is Tyrosine-protein kinase JAK1 (Homo sapiens, UniProt P23458). Description: Selectivity interaction (KinomeScan (DiscoverX)) EUB0001049a JAK1. The following applies: at 1 µM.
Sequence of Tyrosine-protein kinase JAK1 (P23458 whole entry): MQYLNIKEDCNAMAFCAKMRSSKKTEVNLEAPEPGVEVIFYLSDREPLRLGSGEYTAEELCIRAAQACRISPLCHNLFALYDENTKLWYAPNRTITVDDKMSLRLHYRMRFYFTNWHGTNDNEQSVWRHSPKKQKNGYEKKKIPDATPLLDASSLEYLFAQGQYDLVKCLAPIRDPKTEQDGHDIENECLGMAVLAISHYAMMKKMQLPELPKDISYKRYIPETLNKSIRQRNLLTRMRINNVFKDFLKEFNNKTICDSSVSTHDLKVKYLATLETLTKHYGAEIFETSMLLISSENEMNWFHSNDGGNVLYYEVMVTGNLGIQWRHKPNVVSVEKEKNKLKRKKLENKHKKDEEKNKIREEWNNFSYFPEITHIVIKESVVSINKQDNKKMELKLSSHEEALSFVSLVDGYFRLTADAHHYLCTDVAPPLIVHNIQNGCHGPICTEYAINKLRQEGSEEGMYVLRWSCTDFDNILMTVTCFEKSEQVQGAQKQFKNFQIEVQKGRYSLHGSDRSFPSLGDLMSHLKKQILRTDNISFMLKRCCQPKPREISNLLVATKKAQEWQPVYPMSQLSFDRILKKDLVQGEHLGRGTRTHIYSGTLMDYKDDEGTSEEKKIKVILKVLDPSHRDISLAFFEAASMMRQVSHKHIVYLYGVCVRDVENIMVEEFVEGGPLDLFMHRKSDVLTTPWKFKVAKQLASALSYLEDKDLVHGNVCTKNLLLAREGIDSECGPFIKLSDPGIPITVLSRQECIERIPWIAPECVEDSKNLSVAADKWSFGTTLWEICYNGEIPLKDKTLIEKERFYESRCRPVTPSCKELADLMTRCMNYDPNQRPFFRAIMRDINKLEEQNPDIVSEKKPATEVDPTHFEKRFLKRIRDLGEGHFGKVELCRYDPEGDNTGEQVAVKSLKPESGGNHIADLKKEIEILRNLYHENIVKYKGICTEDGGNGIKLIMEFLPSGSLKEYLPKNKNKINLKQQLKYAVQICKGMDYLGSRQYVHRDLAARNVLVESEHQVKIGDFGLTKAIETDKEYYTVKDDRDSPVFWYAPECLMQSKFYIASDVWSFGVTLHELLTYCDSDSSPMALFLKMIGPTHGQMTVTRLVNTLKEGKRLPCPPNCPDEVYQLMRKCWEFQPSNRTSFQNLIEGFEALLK
In test [4] the target is Vascular endothelial growth factor receptor 3 (Homo sapiens, UniProt P35916). Nature of the test: Selectivity interaction (KinomeScan (DiscoverX)) EUB0001049a FLT4. The following applies: at 1 µM.
For test [5], the target named is T1, Mitogen-activated protein kinase kinase kinase 13 (Homo sapiens) (UniProt O43283).
T1 sequence (whole entry): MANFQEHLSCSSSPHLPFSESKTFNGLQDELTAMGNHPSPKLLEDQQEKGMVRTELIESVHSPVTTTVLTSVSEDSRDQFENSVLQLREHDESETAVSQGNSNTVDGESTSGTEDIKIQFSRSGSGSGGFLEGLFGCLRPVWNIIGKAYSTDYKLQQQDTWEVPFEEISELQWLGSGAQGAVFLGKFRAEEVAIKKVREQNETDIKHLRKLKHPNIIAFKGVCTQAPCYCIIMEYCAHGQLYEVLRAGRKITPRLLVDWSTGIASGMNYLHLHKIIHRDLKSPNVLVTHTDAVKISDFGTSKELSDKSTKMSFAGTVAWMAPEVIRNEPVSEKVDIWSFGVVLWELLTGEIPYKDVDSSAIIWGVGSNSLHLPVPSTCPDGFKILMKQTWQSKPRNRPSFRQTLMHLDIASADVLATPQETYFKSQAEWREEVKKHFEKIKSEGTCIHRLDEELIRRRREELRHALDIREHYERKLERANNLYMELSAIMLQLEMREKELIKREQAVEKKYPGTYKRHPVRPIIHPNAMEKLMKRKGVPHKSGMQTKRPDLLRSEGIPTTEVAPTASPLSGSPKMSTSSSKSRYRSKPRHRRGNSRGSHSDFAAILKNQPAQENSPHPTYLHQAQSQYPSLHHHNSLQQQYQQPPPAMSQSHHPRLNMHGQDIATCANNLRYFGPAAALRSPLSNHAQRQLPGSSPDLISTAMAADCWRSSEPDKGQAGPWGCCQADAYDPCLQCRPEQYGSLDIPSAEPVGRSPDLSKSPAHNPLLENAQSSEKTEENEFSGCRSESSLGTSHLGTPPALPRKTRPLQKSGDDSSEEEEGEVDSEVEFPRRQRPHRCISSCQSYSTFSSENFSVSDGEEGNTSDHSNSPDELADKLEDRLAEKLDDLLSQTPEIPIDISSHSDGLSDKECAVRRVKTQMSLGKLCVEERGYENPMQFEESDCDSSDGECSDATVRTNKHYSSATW
Description: Selectivity interaction (KinomeScan (DiscoverX)) EUB0000655a MAP3K13. The conditions noted are these: at 10 µM.

For test [6], the target named is T2, Bone morphogenetic protein receptor type-2 (Homo sapiens) (UniProt Q13873).
T2 sequence (whole entry): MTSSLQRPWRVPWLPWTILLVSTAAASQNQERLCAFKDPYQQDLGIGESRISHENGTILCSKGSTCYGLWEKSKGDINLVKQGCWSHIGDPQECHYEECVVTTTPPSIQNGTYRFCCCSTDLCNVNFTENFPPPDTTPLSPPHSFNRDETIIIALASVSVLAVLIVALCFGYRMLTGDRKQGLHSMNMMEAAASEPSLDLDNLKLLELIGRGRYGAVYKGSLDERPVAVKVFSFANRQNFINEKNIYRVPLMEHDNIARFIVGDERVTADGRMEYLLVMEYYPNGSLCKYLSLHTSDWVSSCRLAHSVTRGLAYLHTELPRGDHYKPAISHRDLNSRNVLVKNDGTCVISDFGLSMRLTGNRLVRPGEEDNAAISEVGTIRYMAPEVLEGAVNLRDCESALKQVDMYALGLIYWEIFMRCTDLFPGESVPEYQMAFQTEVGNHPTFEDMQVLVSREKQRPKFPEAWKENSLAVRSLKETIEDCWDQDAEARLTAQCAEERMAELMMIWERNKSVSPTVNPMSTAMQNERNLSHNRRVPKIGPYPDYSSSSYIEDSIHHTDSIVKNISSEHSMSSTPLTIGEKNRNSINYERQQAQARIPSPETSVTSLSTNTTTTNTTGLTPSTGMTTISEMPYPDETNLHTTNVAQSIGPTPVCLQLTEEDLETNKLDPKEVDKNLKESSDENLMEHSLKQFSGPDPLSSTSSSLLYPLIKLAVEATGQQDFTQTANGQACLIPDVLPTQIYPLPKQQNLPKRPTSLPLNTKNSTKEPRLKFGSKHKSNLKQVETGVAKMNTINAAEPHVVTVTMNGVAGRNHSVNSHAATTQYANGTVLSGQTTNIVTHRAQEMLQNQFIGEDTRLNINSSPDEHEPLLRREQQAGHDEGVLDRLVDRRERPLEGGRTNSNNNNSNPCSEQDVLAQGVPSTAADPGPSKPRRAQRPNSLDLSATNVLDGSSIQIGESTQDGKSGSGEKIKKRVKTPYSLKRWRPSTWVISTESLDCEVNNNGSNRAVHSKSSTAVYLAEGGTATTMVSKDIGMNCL
Nature of the test: Selectivity interaction (KinomeScan (DiscoverX)) EUB0000045b BMPR2.

Test [7] addresses Tyrosine-protein kinase Fyn (Homo sapiens) (UniProt P06241). Description: Selectivity interaction (KinomeScan (DiscoverX)) EUB0000607a FYN. The following applies: at 10 µM.
Test [8] has as its target Serine/threonine-protein kinase pim-2 (Homo sapiens, UniProt Q9P1W9). Description: Selectivity interaction (KinomeScan (DiscoverX)) EUB0000595a PIM2. The conditions noted are these: at 10 µM.
For test [9], the target named is T3, Serine/threonine-protein kinase STK11 (Homo sapiens) (UniProt Q15831).
T3 sequence (whole entry): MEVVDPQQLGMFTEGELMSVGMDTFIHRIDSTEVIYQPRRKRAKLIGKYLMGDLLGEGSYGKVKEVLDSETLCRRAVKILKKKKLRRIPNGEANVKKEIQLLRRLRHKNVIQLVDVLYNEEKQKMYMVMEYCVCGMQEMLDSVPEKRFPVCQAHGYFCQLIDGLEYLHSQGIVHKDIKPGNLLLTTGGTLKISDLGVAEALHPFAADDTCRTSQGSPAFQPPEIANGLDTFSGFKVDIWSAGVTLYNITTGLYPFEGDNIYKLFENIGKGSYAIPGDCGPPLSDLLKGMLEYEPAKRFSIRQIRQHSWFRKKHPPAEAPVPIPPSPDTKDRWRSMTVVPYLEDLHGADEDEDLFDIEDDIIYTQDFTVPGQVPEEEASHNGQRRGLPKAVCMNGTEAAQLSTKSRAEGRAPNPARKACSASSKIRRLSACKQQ
Description: Selectivity interaction (KinomeScan (DiscoverX)) EUB0001619a STK11. The conditions noted are these: at 1 µM.

Sequence of Homeodomain-interacting protein kinase 1 (Q86Z02 whole entry, looked up): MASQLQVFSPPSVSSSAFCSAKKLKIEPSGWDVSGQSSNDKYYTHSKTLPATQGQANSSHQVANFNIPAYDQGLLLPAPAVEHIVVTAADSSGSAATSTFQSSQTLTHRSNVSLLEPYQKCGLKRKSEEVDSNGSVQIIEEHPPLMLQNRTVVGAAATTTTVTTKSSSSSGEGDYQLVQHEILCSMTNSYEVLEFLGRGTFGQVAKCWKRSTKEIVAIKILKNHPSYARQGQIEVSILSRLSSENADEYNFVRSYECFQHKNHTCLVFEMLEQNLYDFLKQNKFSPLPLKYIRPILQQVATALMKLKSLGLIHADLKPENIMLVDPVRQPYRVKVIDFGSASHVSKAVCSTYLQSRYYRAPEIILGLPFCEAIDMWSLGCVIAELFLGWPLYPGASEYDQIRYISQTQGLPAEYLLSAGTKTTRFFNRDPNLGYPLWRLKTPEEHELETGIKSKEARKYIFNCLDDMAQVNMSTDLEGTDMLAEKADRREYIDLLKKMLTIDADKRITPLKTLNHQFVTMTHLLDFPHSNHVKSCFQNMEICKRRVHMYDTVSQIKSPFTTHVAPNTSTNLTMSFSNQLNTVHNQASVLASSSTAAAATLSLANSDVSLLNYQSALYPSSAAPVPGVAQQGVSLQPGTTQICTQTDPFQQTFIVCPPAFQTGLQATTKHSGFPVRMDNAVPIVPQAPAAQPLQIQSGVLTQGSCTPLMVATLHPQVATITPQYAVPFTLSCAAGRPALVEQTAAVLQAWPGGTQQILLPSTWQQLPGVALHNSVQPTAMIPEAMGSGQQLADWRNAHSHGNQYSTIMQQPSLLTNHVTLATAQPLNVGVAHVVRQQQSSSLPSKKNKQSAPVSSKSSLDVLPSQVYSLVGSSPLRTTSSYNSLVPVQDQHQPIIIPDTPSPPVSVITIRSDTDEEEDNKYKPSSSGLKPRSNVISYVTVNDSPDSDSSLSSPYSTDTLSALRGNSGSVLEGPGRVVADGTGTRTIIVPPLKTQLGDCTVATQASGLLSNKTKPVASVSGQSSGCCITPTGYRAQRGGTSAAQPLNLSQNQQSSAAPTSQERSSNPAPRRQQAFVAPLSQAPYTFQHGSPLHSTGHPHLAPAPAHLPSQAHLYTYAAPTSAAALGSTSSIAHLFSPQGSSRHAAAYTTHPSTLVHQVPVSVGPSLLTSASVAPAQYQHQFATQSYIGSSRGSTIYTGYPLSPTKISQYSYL
Sequence of Serine/threonine-protein kinase MARK2 (Homo sapiens) (Q7KZI7 whole entry): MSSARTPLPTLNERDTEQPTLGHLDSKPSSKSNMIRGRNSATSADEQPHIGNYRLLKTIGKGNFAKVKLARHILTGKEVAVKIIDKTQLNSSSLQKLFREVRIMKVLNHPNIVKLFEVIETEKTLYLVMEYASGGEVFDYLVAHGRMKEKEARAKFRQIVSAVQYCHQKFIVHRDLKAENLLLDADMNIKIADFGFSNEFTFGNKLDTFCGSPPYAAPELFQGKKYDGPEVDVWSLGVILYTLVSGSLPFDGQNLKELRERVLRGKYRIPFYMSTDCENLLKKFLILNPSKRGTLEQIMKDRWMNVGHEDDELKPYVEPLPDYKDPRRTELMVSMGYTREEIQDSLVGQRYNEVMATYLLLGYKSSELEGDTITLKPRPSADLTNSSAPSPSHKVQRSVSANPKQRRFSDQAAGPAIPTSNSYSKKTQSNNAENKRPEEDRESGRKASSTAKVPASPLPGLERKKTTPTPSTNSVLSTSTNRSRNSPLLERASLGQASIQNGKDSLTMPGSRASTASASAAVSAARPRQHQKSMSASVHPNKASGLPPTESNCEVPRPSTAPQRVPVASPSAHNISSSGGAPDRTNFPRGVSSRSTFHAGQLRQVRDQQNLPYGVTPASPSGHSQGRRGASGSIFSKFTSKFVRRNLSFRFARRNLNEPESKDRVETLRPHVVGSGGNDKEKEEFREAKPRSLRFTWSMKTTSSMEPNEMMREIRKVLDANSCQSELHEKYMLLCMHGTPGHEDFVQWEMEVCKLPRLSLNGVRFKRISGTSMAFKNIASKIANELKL
Sequence of Serine/threonine-protein kinase pim-2 (Q9P1W9 whole entry, looked up): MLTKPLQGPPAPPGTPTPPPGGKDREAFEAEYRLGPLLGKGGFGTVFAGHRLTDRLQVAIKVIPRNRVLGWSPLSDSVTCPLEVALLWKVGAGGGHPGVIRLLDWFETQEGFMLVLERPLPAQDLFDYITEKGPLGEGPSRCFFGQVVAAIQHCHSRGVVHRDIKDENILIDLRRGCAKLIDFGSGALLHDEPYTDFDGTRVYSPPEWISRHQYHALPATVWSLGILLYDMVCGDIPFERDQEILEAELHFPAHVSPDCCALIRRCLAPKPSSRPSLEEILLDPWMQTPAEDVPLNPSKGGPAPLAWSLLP
Sequence of Tyrosine-protein kinase Fyn (Homo sapiens) (P06241 2-537 limits assumed): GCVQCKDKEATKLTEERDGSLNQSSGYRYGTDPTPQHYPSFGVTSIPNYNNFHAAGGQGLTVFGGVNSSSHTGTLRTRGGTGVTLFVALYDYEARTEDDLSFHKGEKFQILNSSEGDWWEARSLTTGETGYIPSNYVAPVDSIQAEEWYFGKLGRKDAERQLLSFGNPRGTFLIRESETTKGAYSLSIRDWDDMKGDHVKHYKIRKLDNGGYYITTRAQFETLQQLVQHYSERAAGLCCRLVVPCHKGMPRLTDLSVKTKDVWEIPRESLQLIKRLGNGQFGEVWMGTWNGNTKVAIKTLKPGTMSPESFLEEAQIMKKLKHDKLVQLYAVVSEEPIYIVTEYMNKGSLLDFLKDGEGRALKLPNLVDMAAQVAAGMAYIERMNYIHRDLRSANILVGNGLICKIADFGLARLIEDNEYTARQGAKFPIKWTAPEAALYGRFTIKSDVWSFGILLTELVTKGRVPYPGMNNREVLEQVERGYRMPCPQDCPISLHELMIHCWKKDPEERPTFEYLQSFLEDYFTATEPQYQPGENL

Regarding `C=CC(=O)Nc1cccc(C(=O)Nc2ccc(Nc3cc(-c4[nH]c(SC)nc4C)ccn3)cc2)c1`, the % of control in [1] (at 1 µM) was found to be 93%; in [1] (at 5 µM) it was 84%; in [2] (at 1 µM), 103%; in test [2] (at 5 µM), 143%.

Regarding `COc1cc(Nc2nc(C)cc(-c3cnn4nc(OC)ccc34)n2)cc(C(F)(F)F)c1`, the % of control in [3] is 85%; in [4], 89%.

In [5], `CN(C)CCOc1ccc(-c2nc(-c3ccncc3)c(-c3ccc4c(c3)CC/C4=N\O)[nH]2)cc1` had a % of control of 100%.

For `C=CC(=O)Nc1cc(-n2c(=O)ccc3cnc4ccc(-c5ccc(NS(C)(=O)=O)cc5)cc4c32)ccc1C`, the % of control in [6] (at 1 µM) is 69%; in test [6] (at 10 µM), 50%.

`CNC(=O)Nc1ccc(-c2nc(N3CC4CCC(C3)O4)c3cnn(C4CCC5(CC4)OCCO5)c3n2)cc1` came in with a % of control in test [7] of 70%.

In test [8], `COCC(=O)NC/C=C/c1ccc2ncnc(Nc3ccc(Oc4ccc(C)nc4)c(C)c3)c2c1` [CP-724714] yielded a % of control of 100%.

In turn, `N#Cc1cccc(-c2c[nH]c3ncnc(N4CCOCC4)c23)c1` registered a % of control in test [9] of 100%.
